For orientation: EC50 means the concentration needed to bring the measured effect to its halfway point. A low value points to a more potent agent.

Molecules are shown by their SMILES.

The experiment concerns the target T1, Bombyx mori Gr9 (BmGr9) (Bombyx mori, UniProt B3GTD7).
T1 construct: N-terminally TwinStrep-tagged BmGr9, homotetramer; residues 232–269 and the N and C termini (15 and 5 residues) disordered
T1 sequence (B3GTD7 1-449): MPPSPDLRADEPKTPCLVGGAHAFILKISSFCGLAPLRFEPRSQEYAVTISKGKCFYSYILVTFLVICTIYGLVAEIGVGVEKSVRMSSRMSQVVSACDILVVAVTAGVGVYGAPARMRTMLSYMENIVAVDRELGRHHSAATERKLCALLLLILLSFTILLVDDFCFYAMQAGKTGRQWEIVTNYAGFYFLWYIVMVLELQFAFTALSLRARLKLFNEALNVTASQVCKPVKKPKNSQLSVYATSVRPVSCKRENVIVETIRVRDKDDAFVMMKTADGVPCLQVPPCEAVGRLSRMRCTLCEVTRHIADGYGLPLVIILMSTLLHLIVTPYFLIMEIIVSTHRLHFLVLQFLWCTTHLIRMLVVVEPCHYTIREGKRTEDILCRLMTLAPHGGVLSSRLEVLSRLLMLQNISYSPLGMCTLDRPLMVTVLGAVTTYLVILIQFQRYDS
The experiment can be described thus: cryo-EM of protein purified with […] D-fructose ([…] Å); EC50 by two-electrode voltage clamp in Xenopus oocytes. It is filed as cell-based. On the technique in general: In two-electrode clamp one electrode senses voltage and the other passes current.

Consider `OCC1(O)OC[C@@H](O)[C@@H](O)[C@@H]1O` (stereo partly drawn) [D-fructose], for which the EC50 was 22 mM.
